Test results: patent US10166216B2 (Rigel Pharmaceuticals, Inc., priority 2006, dated 2019)

Target: Axl (Homo sapiens (Human), UniProt P30530)
Assay: Phospho-Akt in-cell Western assay (Axl-antibody cross-linking stimulation)
Format: cell-based
Settings: inhibition of Axl activity, Hela cells, phospho-Akt readout; Table 5, formula (Ia3)
Outline: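 HeLa cells on poly-L-lysine, starved 24 hrs with Axl/Fc, pre-treated with compound 1 hr at 37° C., then stimulated 5 min with Axl primary/secondary antibody cluster. Fixed cells probed for phospho-Akt by chemiluminescent in-cell Western; signal normalized to crystal violet cell number.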

Chain of Axl (P30530 26-894): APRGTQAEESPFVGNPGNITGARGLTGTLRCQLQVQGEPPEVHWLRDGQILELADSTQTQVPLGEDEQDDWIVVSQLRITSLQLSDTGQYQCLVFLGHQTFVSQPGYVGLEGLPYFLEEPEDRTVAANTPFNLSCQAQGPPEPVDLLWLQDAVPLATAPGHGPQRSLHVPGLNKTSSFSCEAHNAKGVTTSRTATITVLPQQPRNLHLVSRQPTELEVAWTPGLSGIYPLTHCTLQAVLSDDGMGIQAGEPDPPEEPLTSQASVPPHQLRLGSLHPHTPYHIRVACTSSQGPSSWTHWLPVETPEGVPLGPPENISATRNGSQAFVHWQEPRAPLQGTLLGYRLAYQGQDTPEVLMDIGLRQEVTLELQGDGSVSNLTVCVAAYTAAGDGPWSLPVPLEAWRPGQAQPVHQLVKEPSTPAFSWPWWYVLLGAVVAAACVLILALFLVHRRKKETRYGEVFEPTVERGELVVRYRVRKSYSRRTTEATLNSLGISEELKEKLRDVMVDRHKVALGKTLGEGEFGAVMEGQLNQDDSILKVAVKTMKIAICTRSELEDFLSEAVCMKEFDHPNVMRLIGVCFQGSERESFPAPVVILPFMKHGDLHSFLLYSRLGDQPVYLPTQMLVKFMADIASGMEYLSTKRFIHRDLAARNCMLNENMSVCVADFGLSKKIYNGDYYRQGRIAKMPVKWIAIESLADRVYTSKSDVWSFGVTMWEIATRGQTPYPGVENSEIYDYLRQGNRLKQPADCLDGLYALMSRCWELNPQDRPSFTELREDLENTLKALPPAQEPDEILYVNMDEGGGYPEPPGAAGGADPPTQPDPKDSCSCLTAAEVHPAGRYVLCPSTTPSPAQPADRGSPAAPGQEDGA

| SMILES | IC50 |
| --- | --- |
| CNC(=O)c1ccc(Nc2nc(NC)n(-c3ccccc3)n2)cc1 [Compound 246, 1-phenyl-N^3-(4-(methylaminocarbonyl)-phenyl)-N^5-methyl-1H-1,2,4-triazole-3,5-diamine] | > 20000 nM |
| CCOC(=O)c1ccc(Nc2nc(NC)n(-c3ccccc3)n2)cc1 [Compound 247, 1-phenyl-N^3-(4-(ethyloxocarbonyl)phenyl)-N^5-methyl-1H-1,2,4-triazole-3,5-diamine] | > 20000 nM |

Same assay, conditions: inhibition of Axl activity, phospho-Akt in-cell Western assay

| SMILES | IC50 |
| --- | --- |
| Nc1nc(Nc2ccc(N3CCN([C@H]4C[C@@H]5CC[C@H]4C5)CC3)c(Cl)c2)nn1-c1ncnc2ccsc12 [Compound 243, 1-thieno[3,2-d]pyrimidin-4-yl-N^3-(3-chloro-4-(4-((1S,2S,4R)-bicyclo[2.2.1]heptan-2-yl)piperazin-1-yl)phenyl)-1H-1,2,4-triazole-3,5-diamine] | < 1000 nM |
| Nc1nc(Nc2ccc(N3CCN([C@H]4C[C@@H]5CC[C@H]4C5)CC3)c(Cl)c2)nn1-c1ncnc2sccc12 [Compound 244, 1-thieno[2,3-d]pyrimidin-4-yl-N^3-(3-chloro-4-(4-((1S,2S,4R)-bicyclo[2.2.1]heptan-2-yl)piperazin-1-yl)phenyl)-1H-1,2,4-triazole-3,5-diamine] | < 1000 nM |
| Cc1csc2c(-n3nc(Nc4ccc(N5CCN([C@H]6C[C@@H]7CC[C@H]6C7)CC5)c(F)c4)nc3N)ncnc12 [Compound 245, 1-(7-methylthieno[3,2-d]pyrimidin-4-yl)-N^3-(3-fluoro-4-(4-((1S,2S,4R)-bicyclo[2.2.1]heptan-2-yl)piperazin-1-yl)phenyl)-1H-1,2,4-triazole-3,5-diamine] | < 1000 nM |
| Cc1csc2c(-n3nc(Nc4ccc(N5CCN(C6CC7CCC6C7)[C@H](C)C5)c(F)c4)nc3N)ncnc12 (stereo partly drawn) [Compound 248, 1-(7-methylthieno[3,2-d]pyrimidin-4-yl)-N^3-(3-fluoro-4-(3-(R)-methyl-4-(bicyclo[2.2.1]heptan-2-yl)piperazin-1-yl)phenyl)-1H-1,2,4-triazole-3,5-diamine] | < 1000 nM |
| Cc1csc2c(-n3nc(Nc4ccc(N5CCN(C6CC7CCC6C7)[C@@H](C)C5)c(F)c4)nc3N)ncnc12 (stereo partly drawn) [Compound 249, 1-(7-methylthieno[3,2-d]pyrimidin-4-yl)-N^3-(3-fluoro-4-(3-(S)-methyl-4-(bicyclo[2.2.1]heptan-2-yl)piperazin-1-yl)phenyl)-1H-1,2,4-triazole-3,5-diamine] | < 1000 nM |
| Cc1csc2c(-n3nc(Nc4ccc(N5CCN([C@H]6C[C@@H]7CC[C@H]6C7)[C@H](C)C5)c(F)c4)nc3N)ncnc12 [Compound 250, 1-(7-methylthieno[3,2-d]pyrimidin-4-yl)-N^3-(3-fluoro-4-(3-(R)-methyl-4-((1S,2S,4R)-bicyclo[2.2.1]heptan-2-yl)piperazin-1-yl)phenyl)-1H-1,2,4-triazole-3,5-diamine] | < 1000 nM |
| Cc1csc2c(-n3nc(Nc4ccc(N5CCN([C@H]6C[C@@H]7CC[C@H]6C7)[C@@H](C)C5)c(F)c4)nc3N)ncnc12 [Compound 251, 1-(7-methylthieno[3,2-d]pyrimidin-4-yl)-N^3-(3-fluoro-4-(3-(S)-methyl-4-((1S,2S,4R)-bicyclo[2.2.1]heptan-2-yl)piperazin-1-yl)phenyl)-1H-1,2,4-triazole-3,5-diamine] | < 1000 nM |
| Cc1cc(Nc2nc(N)n(-c3ncnc4c(C)csc34)n2)ccc1N1CCN([C@H]2C[C@@H]3CC[C@H]2C3)CC1 [Compound 252, 1-(7-methylthieno[3,2-d]pyrimidin-4-yl)-N^3-(3-methyl-4-(4-((1S,2S,4R)-bicyclo[2.2.1]heptan-2-yl)piperazin-1-yl)phenyl)-1H-1,2,4-triazole-3,5-diamine] | < 1000 nM |
| Cc1cc(Nc2nc(N)n(-c3ncnc4c(C)csc34)n2)ccc1N1CCN([C@H]2C[C@@H]3CC[C@H]2C3)[C@@H](C)C1 [Compound 253, 1-(7-methylthieno[3,2-d]pyrimidin-4-yl)-N^3-(3-methyl-4-(3-(S)-methyl-4-((1S,2S,4R)-bicyclo[2.2.1]heptan-2-yl)piperazin-1-yl)phenyl)-1H-1,2,4-triazole-3,5-diamine] | < 1000 nM |
